These results are taken from patent US20050049224A1, “Antimicrobial mixtures comprising iodopropynyl compounds and dimethyldithiocarbamate derivatives” (priority 2003, published 2005).

One assay has as its system Aspergillus niger. Put plainly: Fungal growth on acrylic/vinyl acrylic white house paint film on filter paper. To be noted: 0.06% actives in paint, four weeks 28° C., scale 1 (no growth touching square) to 15 (totally covered), average of at least 3 runs. Format: cell-based. As for the experimental part: In this example an acrylic, vinyl acrylic white house paint was used as the test medium.
Test formulations of the actives were prepared for each of the biocide blends to be tested (see tables 2b and 2c) by weighing the appropriate amounts of actives and adding them to the test paint so that in each test formulation the weight of the actives was 20% of the sample and 80% of the sample was paint. Each mixture was then stirred to achieve a homogeneous mixture. These test formulations were then incorporated into the test paint at the rate of 0.3% w/w, i.e. the final level of actives in the paint was 0.06%.
The test paints were then applied to a filter paper using a standard 3-mil drawdown bar to insure uniformity of the film. Samples were then dried at room temperature, and placed on agar contained in a Petri dish. The filter papers were then inoculated with a test inoculum of Aspergillus niger. Inoculated filter papers containing the test paints were placed in a constant temperature (28° C.) fungal incubator for four weeks. At the end of the incubation, fungal growth on each test paint was measured and recorded.
Each test blend was run at least 3 times and each result represents the average of the runs.

Assay [1] relates to Aspergillus niger (ATCC 6275). Put plainly: Minimum Inhibitory Concentration (MIC) by spiral gradient endpoint plating, with Kull synergistic index. Type of assay: cell-based.
Experimental: Spores were removed from the Aspergillus niger slant by adding a small amount of phosphate buffer pH 7.0 (Thomas Scientific phosphate buffer & magnesium chloride, Lot # 023-0703) and scraping with a sterile nichrome wire loop. This process was repeated twice. Loosened spores were removed from the slant by aseptically pouring them into a sterile bottle containing 30 ml. of phosphate buffer and a volume of roughly 40 ml. of 6-mm, borosilicate glass beads. The bead bottle was shaken to disperse the spores and additional buffer was added to a final volume of 50 ml. Spore density was adjusted in distilled water blanks to that of a 0.5. McFarland nephelometer standard.
With the aid of the SGE Software the proper aqueous dilutions of each biocide or test blend were prepared and adjusted to a final volume of 10 ml. Then, 250 micro-liters of each biocide mixture was processed by the spiral plater.
The Autoplate 4000 mechanically applied mixtures of test fungicides to 150 MM malt agar plates using an exponential application gradient. Gradients of applied fungicides were allowed to completely diffuse into the surface of the agar (1 to 4 hours at room temperature 23° C.) before inoculating the plates with fungi. […]
Following incubation, visible growth of the test organism was observed on a portion of the radial streak and ended where the concentration of biocide was high enough to prevent growth. This growth endpoint was used by the SGE software to compute the exact MIC expressed as parts per million (PPM) of active fungicide. […]
Elisman, H. D. Sylwestrowicz and P. K. Mayer, in Applied Microbiology, 9:538 (1961) where: • Qa=the quantity of A used in a binary mixture that gives the desired effect. • QA=the quantity of A which when used alone gives the desired effect. • Qb=the quantity of B used in a binary mixture that gives the desired effect. • QB=the quantity of B which when used alone gives the desired effect.
The synergistic index (SI) for each mixture was determined by the equation SI=Qa/QA+Qb/QB.
Assay [2] concerns Streptoverticillium reticulans ATCC 25607 (pink stain organism). The experiment in a line: ASTM E 1428-91 pink stain test of flexible PVC film. As to conditions: Table 3d, IPBC/Thiram in PVC film, 1000 ppm total; two weeks 28° C.; 0 no stain, 1 trace <10%, 2 slight 10-30%, 3 moderate 30-50%, 4 heavy >50% coverage; average of triplicate.
Experimental: In this example a PVC formulation for flexible vinyl film was used as the test medium.
Five blends were prepared by adding the appropriate amount of the biocide to separate vinyl film form formulations prepared according to Table 3a.
Difco malt agar was prepared using manufacturers directions. Sterilized agar (30 ML) was poured into sterile plastic 100 mm Petri dishes to provide a solidified agar layer sufficient to nourish the test organism for the duration of the test.
Following inoculation of the agar, a sterile forceps was used to place the test specimen, previously sterilized by a brief dip in boiling water, on the agar. Each test blend was run in triplicate and the result represents the average of the three. The specimen was gently pressed on the surface of the agar to insure good contact. The Petri dishes were covered and incubated for two weeks in a 28° C. incubator.
Following incubation, samples were lifted from the surface of the agar and both sides were examined against a white background for presence of pink staining.
Degree of staining reported was determined by the area of the sample stained rather than by intensity of the color. […]

As to `CN(C)C(=S)SSC(=S)N(C)C` [Thiram, bis(dimethylthiocarbamoyl) disulfide], the “Fungal Growth” value with Aspergillus niger (Table 2c, IPBC/Thiram) is 13.8 fungus units. Moreover, in assay [1] (MIC of Thiram alone (Table 1b)), the “QB (quantity of B which when used alone gives the desired effect)” value amounted to 26.73 ppm. Also, the “Pink Stain Rating” value in assay [2] worked out at 2.0.

On to `CCCCNC(=O)OCC#CI` [IPBC, 3-iodo-2-propynyl butyl carbamate], for which the “Fungal Growth” value worked out at 7.8 fungus units in the assay with Aspergillus niger (Table 2b, IPBC/Ziram) and 2.8 fungus units with Aspergillus niger (Table 2c, IPBC/Thiram). Further, the “QA (quantity of A which when used alone gives the desired effect)” value in assay [1] (MIC of IPBC alone (Table 1a)) and in assay [1] (MIC of IPBC alone (Table 1b)) was 1.08 ppm throughout.
